Laboratory results taken from publication PMC8921975 (Journal of the American Chemical Society, 2020).
“Also recorded” adds a separate entry of the source. Positions of bridges follow the written chain, without caps; N, C: chain ends. Non-standard residues stand in square brackets, D forms with d. No end group written: not given here. pGlu = O=C1CC[C@@H](C(=O)O)N1

Key:
full-length TDP1 = full-length TDP1 (Homo sapiens, UniProt Q9NUW8); assay: Steady-state; format: biochemical
[1] = test system: N-terminal truncated form of TDP1 (Δ147TDP1); format: biochemical, human; conditions: N-terminally truncated TDP1 lacking regulatory domain (Δ1–147); FRET assay, PBS pH 7.4, 80 mM KCl, 1 mM TCEP
TDP1 = TDP1 inhibitory activity of Axinella-derived peptides; format: biochemical; conditions: Figure S2
[2] = full-length TDP1 0.5 nM, 0.01–3 μM FRET substrate, recifin A 0, 0.2, 0.5, 1, 2 μM, PBS pH 7.4, 80 mM KCl, 1 mM TCEP, quadruplicate, 1 h
[3] = full-length TDP1, Figure S10 (Km and Vmax ratios)

full-length TDP1, sequence (Q9NUW8 whole entry, the tested form may be a part): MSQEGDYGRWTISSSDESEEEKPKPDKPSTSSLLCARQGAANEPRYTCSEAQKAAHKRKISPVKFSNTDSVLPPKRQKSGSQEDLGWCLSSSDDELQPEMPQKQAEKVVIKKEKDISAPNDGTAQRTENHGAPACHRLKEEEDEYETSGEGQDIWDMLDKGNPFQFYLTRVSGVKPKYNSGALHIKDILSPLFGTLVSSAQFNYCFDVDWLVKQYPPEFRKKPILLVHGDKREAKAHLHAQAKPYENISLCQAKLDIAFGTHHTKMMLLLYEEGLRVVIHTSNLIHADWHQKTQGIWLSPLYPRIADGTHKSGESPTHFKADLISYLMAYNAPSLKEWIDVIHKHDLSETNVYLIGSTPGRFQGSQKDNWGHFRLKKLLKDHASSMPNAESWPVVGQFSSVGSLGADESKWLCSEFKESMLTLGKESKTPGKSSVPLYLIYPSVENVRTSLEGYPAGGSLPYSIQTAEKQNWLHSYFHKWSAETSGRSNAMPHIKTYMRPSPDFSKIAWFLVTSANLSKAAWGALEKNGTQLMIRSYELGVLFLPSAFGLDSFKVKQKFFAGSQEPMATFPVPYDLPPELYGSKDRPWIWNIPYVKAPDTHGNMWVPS

## [pGlu]EAFCYSDRFCQNYIGSIPDCCFGRGSYSFELQPPPWECYQC (disulfide 5-21, 11-39, 22-42) [recifin A]
full-length TDP1; [2]
  Km for the substrate, effect of recifin A (in words): increased the Km for the substrate
  Vmax, effect of recifin A (in words): modest increase of the observed Vmax value; also recorded: increased the Vmax of the enzyme
full-length TDP1; [3]
  recifin A-dependent increase in the Km for the substrate: approximately 6 fold
  recifin A-dependent increase of observed Vmax: approximately 1.6 fold
[1]
  inhibition of Δ147TDP1 enzymatic activity (in words): not affecting the activity of a truncated catalytic domain of TDP1; also recorded: only a minimal effect; also recorded: inhibited full-length TDP1 but not N-terminally truncated TDP1 (Δ147TDP1); also recorded: does not affect the enzymatic activity of truncated TDP1; also recorded: unaffected by recifin A
TDP1
  TDP1 inhibitory activity relative to the other Axinella peptides: most active peptide
